Assay results published in the CheMixHub ionic liquid set.

Test: xn = mol fraction of the nth substance listed

CC[n+]1ccn(CCOC)c1.N#C[S-] + CC(C)O
viscosity [mPa·s], 100 kPa
Settings | x1 = 0.1 | x1 = 0.1998 | x1 = 0.3234 | x1 = 0.3998 | x1 = 0.5003 | x1 = 0.6 | x1 = 0.697 | x1 = 0.8002 | x1 = 0.8991 | x1 = 1
288.15 K | 4.25 | 6.2 | 10.24 | 15.05 | 19.9 | 28.1 | 38.6 | 54.1 | 72.5 | 93.1
293.15 K | 3.66 | 5.32 | 8.77 | 12.96 | 16.8 | 23 | 31.1 | 42.7 | 56.8 | 70.8
298.15 K | 3.18 | 4.62 | 7.6 | 11.21 | 14.12 | 19.3 | 25.7 | 34.4 | 45 | 55.8
303.15 K | 2.79 | 4.05 | 6.64 | 9.42 | 11.99 | 16.48 | 21.6 | 28.2 | 36.3 | 44.3
308.15 K | 2.45 | 3.58 | 5.82 | 8.25 | 10.28 | 14.1 | 18.7 | 23.5 | 29.9 | 36
313.15 K | 2.17 | 3.18 | 5.17 | 7.23 | 8.91 | 12.18 | 15.97 | 19.8 | 24.9 | 29.7
318.15 K | 1.93 | 2.84 | 4.6 | 6.27 | 7.78 | 10.62 | 13.55 | 17.18 | 21.1 | 24.9

CCOCCO + CCCC[n+]1ccn(C)c1.[Br-]
100 kPa, x2 = 0
Settings | viscosity [mPa·s]
298.15 K | 1.81
303.15 K | 1.61
308.15 K | 1.45
313.15 K | 1.33

CCCC[N+](CCCC)(CCCC)CCCC.O=S(=O)([O-])O + O=C1O[C@H]([C@@H](O)CO)C(O)=C1O + O
viscosity [mPa·s], 101 kPa
Settings | 298.15 K | 308.15 K | 318.15 K
x2 = 0.0003644, x1 = 0.0003601 | 0.908 | 0.734 | 0.61
x2 = 0.0003645, x1 = 9.006e-05 | 0.901 | 0.726 | 0.603
x2 = 0.000365, x1 = 0.0001801 | 0.903 | 0.729 | 0.605
x2 = 0.0003656, x1 = 0.0002701 | 0.906 | 0.731 | 0.607
x2 = 0.0006576, x1 = 0.0001801 | 0.91 | 0.734 | 0.608
x2 = 0.0006584, x1 = 9.003e-05 | 0.908 | 0.732 | 0.606
x2 = 0.0006587, x1 = 0.00027 | 0.912 | 0.737 | 0.611
x2 = 0.0006597, x1 = 0.00036 | 0.915 | 0.739 | 0.614
x2 = 0.0009539, x1 = 9.001e-05 | 0.913 | 0.737 | 0.611
x2 = 0.0009554, x1 = 0.00018 | 0.917 | 0.74 | 0.612
x2 = 0.0009567, x1 = 0.0003599 | 0.921 | 0.745 | 0.619
x2 = 0.0009569, x1 = 0.00027 | 0.919 | 0.742 | 0.617
x2 = 0.001253, x1 = 8.998e-05 | 0.92 | 0.743 | 0.615
x2 = 0.001255, x1 = 0.0001799 | 0.922 | 0.745 | 0.616
x2 = 0.001255, x1 = 0.0002699 | 0.924 | 0.748 | 0.621
x2 = 0.001257, x1 = 0.0003598 | 0.928 | 0.751 | 0.624
x2 = 0.001553, x1 = 8.995e-05 | 0.925 | 0.747 | 0.62
x2 = 0.001556, x1 = 0.0001799 | 0.929 | 0.75 | 0.622
x2 = 0.001558, x1 = 0.0002698 | 0.931 | 0.754 | 0.626
x2 = 0.001561, x1 = 0.0003597 | 0.934 | 0.757 | 0.629
x2 = 0.001859, x1 = 8.992e-05 | 0.931 | 0.751 | 0.625
x2 = 0.00186, x1 = 0.0001798 | 0.934 | 0.755 | 0.627
x2 = 0.001863, x1 = 0.0002697 | 0.938 | 0.758 | 0.631
x2 = 0.001866, x1 = 0.0003596 | 0.94 | 0.762 | 0.634

[I-].[Li+] + CC[n+]1ccn(C)c1.O=S(=O)([N-]S(=O)(=O)C(F)(F)F)C(F)(F)F
electrical conductivity [S/m], 101 kPa
Settings | x2 = 0.8099 | x2 = 0.8475 | x2 = 0.8826 | x2 = 0.9207 | x2 = 0.9587
288.15 K | – | 0.225 | 0.294 | 0.385 | 0.497
298.15 K | 0.286 | 0.376 | 0.473 | 0.602 | 0.744
333.15 K | 1.06 | 1.25 | 1.43 | 1.66 | 1.94

CCOS(=O)(=O)[O-].CC[n+]1ccn(C)c1 + CC(=O)c1ccccc1
100 kPa, x2 = 0
Settings | viscosity [mPa·s]
313.15 K | 40
333.15 K | 20.4

CC(=O)[O-].Cn1cc[nH+]c1 + O
Settings | electrical conductivity [S/m] | viscosity [mPa·s]
293.15 K, 101.3 kPa, x2 = 0.0705 | 0.905 | –
293.15 K, 101.3 kPa, x2 = 0.1339 | 1.176 | –
293.15 K, 101.3 kPa, x2 = 0.8407 | 8.771 | –
293.15 K, 101.3 kPa, x2 = 0.9035 | 6.875 | –
298.15 K, 101 kPa, x1 = 0.0051 | 1.17 | –
298.15 K, 101 kPa, x1 = 0.0151 | 2.49 | –
298.15 K, 101 kPa, x2 = 0.9502 | 3.87 | –
298.15 K, 101 kPa, x2 = 0.98 | 2.71 | –
303.15 K, 101 kPa, x2 = 0 | – | 5.91
313.15 K, 101 kPa, x2 = 0 | – | 4.395

CCCCCC[n+]1ccn(C)c1.O=[N+]([O-])[O-] + CCCC(C)O
100 kPa
Settings | viscosity [mPa·s]
293.15 K, x1 = 0.2408 | 23.7
293.15 K, x1 = 0.7401 | 258
293.15 K, x1 = 0.8508 | 417
298.15 K, x1 = 0.1609 | 10.16
303.15 K, x1 = 0.0814 | 4.67
303.15 K, x1 = 0.7401 | 113.5
308.15 K, x1 = 0.7401 | 75.3
313.15 K, x1 = 0.0814 | 2.69
323.15 K, x1 = 0.0814 | 1.71
323.15 K, x1 = 0.6509 | 16.03
323.15 K, x1 = 1 | 110.9

CC[n+]1ccn(CCOC)c1.N#C[S-] + CCCO
viscosity [mPa·s], 100 kPa
Settings | x1 = 0.1001 | x1 = 0.2 | x1 = 0.3001 | x1 = 0.4001 | x1 = 0.5001 | x1 = 0.5719 | x1 = 0.701 | x1 = 0.7997 | x1 = 0.8987 | x1 = 1
288.15 K | 3.83 | 5.71 | 8.65 | 14.3 | 20 | 28.2 | 39.1 | 55.7 | 71.5 | 93.1
293.15 K | 3.38 | 4.99 | 7.53 | 12.15 | 16.78 | 23.3 | 31.8 | 44.1 | 56.7 | 70.8
298.15 K | 2.99 | 4.4 | 6.62 | 10.43 | 13.84 | 19.7 | 26.2 | 35.7 | 45.6 | 55.8
303.15 K | 2.66 | 3.94 | 5.88 | 9.06 | 11.68 | 16.75 | 21.9 | 29.3 | 37.4 | 44.3
308.15 K | 2.39 | 3.52 | 5.25 | 7.95 | 10.04 | 13.92 | 19.2 | 24.4 | 31.1 | 36
313.15 K | 2.15 | 3.16 | 4.72 | 7.03 | 8.8 | 11.81 | 16.05 | 20.6 | 26 | 29.7
318.15 K | 1.94 | 2.84 | 4.24 | 6.22 | 7.8 | 10.16 | 13.47 | 17.99 | 22 | 24.9
